Results from US20080009418A1, “Selective Inhibitors” (Alchemia LTD., priority 2004, published 2008).

Key:
Human Melanocortin (MC4) = molecular target: T1, Human Melanocortin (MC4) (Homo sapiens, UniProt P32245); experiment: Radioligand binding, human melanocortin MC4 membranes, FlashPlate, [125I]-NDP-αMSH; settings: compound at 10 μM; [125I]-NDP-αMSH
T1 construct: purchased Perkin Elmer Biosignal
Outline: (§1)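 Cloned human receptor membranes were coated onto FlashPlate wells and incubated with radioligand and compound (added from a 0.5 mM DMSO daughter plate) for 1 hour at room temperature in the dark. Scintillation counting gave percent inhibition, with DMSO defining total and reference ligand defining non-specific binding.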

[1] = molecular target: T2, Human melanin-concentrating hormone (MCH1) (Homo sapiens, UniProt Q99705); experiment: Radioligand binding, human melanin-concentrating hormone MCH1 membranes, FlashPlate, [125I]-S36057; settings: compound at 10 μM; [125I]-S36057
T2 construct: purchased Perkin Elmer Biosignal
Outline: as §1

Human melanocortin (MC5) = molecular target: T3, Human melanocortin (MC5) (Homo sapiens, UniProt P33032); experiment: Radioligand binding, human melanocortin MC5 membranes, FlashPlate, [125I]-NDP-αMSH; settings: compound at 10 μM, [125I]-NDP-αMSH
T3 construct: purchased Perkin Elmer Biosignal
Outline: as §1

Human opioid (ORL1) = molecular target: T4, Human opioid (ORL1) (Homo sapiens, UniProt P41146); experiment: Radioligand binding, human opioid ORL1 membranes, FlashPlate, [125I]-Nociceptin; settings: compound at 10 μM; [125I]-Nociceptin
T4 construct: purchased Perkin Elmer Biosignal
Outline: as §1

Human μ-opioid (MOP) = molecular target: T5, Human μ-opioid (MOP) (Homo sapiens, UniProt P35372); experiment: Radioligand binding, human μ-opioid (MOP) membranes, FlashPlate, [3H]-Naloxone; settings: compound at 10 μM; [3H]-Naloxone
T5 construct: purchased Perkin Elmer Biosignal
Outline: as §1

Human Melanocortin (MC3) = molecular target: T6, Human Melanocortin (MC3) (Homo sapiens, UniProt P41968); experiment: Radioligand binding, human melanocortin MC3 membranes, FlashPlate, [125I]-NDP-αMSH; settings: compound at 10 μM; [125I]-NDP-αMSH
T6 construct: purchased Perkin Elmer Biosignal
Outline: as §1

Human neurokinin (NK1) = molecular target: T7, Human neurokinin (NK1) (Homo sapiens, UniProt P25103); experiment: Radioligand binding, human neurokinin NK1 membranes, filtration, [125I]-Substance P; settings: compound at 10 μM; [125I]-Substance P
T7 construct: purchased Perkin Elmer Biosignal
Outline: (§2)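 Percent inhibition of radioligand binding measured on recombinant human membranes: NK1 with [125I]-Substance P, KOP with [3H]-Diprenorphine. Incubation 1 h at room temperature, then harvest onto 0.3% PEI-soaked filters, cold Tris-HCl pH 7.4 washes and scintillation counting; non-specific binding from reference ligand wells.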

Human κ-Opioid (KOP) = molecular target: T8, Human κ-Opioid (KOP) (Homo sapiens, UniProt P41145); experiment: Radioligand binding, human κ-opioid (KOP) membranes, filtration, [3H]-Diprenorphine; settings: compound at 10 μM; [3H]-Diprenorphine
T8 construct: purchased Perkin Elmer Biosignal
Outline: as §2

Mouse urotensin (mUR2) = molecular target: T9, Mouse urotensin (mUR2) (Mus musculus, UniProt Q8VIH9); experiment: Radioligand binding, mouse urotensin mUR2 membranes, FlashPlate, [125I]-Urotensin II; settings: compound at 10 μM; [125I]-Urotensin II
T9 construct: purchased Perkin Elmer Biosignal
T9 sequence (Q8VIH9 1-385): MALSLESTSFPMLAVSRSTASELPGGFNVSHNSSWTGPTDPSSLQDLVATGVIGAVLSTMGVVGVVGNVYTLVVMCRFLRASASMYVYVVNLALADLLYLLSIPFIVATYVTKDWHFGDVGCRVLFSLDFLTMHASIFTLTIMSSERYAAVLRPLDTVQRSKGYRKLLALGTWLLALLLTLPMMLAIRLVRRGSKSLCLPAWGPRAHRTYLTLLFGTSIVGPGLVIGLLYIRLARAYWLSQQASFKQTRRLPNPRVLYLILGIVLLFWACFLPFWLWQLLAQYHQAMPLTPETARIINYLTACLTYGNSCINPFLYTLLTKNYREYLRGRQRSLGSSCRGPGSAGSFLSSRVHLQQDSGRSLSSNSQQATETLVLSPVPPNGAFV
Outline: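 Cloned mouse urotensin (mUR2) receptor membranes from Perkin Elmer Biosignal were immobilized in FlashPlate microplates using a proprietary coating. Each well got 19.5 μl buffer, then 0.5 μl of DMSO, reference ligand, or compound. Adding 5 μl of [125I]-Urotensin II, diluted to 5× final concentration in binding buffer, started binding. Plates were sealed with TopSeal-A and incubated 1 hour at room temperature in the dark. Wells were counted for 30 seconds each on a TopCount after a 60-second delay, and percentage inhibition was calculated.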

Human δ-opioid (DOP) = molecular target: T10, Human δ-opioid (DOP) (Homo sapiens, UniProt P41143); experiment: Radioligand binding, human δ-opioid (DOP) membranes, FlashPlate, [3H]-Bremazocine; settings: compound at 10 μM; [3H]-Bremazocine
T10 construct: purchased Perkin Elmer Biosignal
Outline: as §1

[2] = molecular target: T11, Human neuropeptide Y (NPY-Y1) (Homo sapiens, UniProt P25929); experiment: Radioligand binding, human neuropeptide Y NPY-Y1 membranes, FlashPlate, [125I]-PYY; settings: compound at 10 μM; [125I]-PYY
T11 construct: purchased Perkin Elmer Biosignal
T11 sequence (P25929 1-384): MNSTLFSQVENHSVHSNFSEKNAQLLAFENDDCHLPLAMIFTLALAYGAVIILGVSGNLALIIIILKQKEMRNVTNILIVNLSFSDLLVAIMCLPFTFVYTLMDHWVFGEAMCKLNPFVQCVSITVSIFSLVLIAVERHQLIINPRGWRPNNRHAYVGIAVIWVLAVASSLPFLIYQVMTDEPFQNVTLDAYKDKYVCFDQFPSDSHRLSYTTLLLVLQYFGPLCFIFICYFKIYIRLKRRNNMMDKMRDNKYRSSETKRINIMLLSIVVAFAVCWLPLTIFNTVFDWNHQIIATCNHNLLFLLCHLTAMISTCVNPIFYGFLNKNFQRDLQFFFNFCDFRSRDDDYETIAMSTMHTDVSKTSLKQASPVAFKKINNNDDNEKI
Outline: as §1

T6 sequence (P41968 whole entry): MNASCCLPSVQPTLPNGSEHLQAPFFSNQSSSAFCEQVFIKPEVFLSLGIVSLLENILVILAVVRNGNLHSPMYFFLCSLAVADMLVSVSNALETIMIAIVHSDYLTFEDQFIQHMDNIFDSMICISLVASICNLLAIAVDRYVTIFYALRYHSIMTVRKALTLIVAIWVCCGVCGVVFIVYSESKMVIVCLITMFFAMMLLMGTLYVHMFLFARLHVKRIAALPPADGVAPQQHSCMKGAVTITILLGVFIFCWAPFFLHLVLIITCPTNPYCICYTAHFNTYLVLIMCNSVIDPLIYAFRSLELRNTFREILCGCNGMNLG
T7 sequence (P25103 whole entry): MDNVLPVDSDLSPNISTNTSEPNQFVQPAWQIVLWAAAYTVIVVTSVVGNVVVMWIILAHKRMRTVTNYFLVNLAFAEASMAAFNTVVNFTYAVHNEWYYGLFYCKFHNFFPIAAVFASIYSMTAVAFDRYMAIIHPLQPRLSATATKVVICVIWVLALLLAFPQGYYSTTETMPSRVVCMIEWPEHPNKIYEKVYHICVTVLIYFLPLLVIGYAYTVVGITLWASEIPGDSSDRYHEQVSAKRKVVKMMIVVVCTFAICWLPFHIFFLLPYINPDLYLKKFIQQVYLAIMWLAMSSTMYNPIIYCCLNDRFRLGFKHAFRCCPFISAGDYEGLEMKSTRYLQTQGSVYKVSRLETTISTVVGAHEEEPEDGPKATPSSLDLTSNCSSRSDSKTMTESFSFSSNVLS
T3 sequence (P33032 whole entry): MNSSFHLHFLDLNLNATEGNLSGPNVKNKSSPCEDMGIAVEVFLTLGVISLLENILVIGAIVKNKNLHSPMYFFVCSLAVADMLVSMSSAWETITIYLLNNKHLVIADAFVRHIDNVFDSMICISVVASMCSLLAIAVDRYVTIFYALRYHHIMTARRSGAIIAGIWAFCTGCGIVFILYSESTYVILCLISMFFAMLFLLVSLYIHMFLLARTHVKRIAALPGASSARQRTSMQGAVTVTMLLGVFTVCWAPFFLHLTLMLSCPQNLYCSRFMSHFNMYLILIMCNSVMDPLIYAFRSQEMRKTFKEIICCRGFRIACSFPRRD
T2 sequence (Q99705 whole entry): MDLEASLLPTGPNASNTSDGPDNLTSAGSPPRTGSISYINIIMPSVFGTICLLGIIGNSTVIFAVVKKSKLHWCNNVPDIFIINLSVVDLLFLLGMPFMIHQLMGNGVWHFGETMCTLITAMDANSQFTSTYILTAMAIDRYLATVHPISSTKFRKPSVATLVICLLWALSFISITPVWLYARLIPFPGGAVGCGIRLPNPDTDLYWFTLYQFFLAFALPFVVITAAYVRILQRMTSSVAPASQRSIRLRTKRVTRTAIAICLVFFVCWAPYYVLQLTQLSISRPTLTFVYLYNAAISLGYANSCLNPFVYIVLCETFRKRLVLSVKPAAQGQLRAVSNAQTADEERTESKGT
T1 sequence (P32245 whole entry): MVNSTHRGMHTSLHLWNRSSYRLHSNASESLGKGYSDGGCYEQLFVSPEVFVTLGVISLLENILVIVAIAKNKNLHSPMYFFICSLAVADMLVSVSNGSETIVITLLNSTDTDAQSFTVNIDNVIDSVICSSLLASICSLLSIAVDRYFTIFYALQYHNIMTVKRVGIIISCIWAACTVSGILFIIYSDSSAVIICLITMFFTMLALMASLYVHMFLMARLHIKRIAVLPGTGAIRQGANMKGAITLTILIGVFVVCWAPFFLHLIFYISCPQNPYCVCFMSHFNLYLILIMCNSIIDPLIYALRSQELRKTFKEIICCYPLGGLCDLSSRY
T10 sequence (P41143 whole entry): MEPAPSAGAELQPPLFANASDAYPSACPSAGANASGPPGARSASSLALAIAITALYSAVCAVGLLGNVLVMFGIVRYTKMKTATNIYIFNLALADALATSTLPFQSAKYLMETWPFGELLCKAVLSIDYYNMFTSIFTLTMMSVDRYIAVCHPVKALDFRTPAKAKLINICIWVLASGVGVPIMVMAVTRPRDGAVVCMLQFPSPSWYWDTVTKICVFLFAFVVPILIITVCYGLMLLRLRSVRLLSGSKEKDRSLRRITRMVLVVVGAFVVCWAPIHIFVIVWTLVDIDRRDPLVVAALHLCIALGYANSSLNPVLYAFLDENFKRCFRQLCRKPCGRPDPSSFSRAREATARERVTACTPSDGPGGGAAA
T5 sequence (P35372 whole entry): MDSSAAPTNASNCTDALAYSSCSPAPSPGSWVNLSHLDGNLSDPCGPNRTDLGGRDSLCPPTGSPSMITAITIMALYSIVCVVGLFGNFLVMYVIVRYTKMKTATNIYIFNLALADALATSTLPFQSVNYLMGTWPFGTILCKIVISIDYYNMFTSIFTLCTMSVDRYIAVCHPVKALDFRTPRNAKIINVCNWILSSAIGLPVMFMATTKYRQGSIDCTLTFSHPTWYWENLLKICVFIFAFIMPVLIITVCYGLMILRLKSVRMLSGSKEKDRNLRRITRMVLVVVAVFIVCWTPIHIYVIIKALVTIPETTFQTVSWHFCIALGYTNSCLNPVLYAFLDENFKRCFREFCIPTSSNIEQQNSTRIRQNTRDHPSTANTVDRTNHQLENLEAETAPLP
T4 sequence (P41146 whole entry): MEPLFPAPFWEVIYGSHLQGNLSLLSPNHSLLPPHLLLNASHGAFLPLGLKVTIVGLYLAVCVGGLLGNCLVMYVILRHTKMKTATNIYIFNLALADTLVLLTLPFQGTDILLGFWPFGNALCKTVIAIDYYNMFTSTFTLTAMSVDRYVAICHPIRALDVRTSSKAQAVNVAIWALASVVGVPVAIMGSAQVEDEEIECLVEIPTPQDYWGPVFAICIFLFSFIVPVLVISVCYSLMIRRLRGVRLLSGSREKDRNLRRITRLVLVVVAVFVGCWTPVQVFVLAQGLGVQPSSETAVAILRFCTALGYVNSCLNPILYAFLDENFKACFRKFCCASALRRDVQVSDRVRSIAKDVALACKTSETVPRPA
T8 sequence (P41145 whole entry): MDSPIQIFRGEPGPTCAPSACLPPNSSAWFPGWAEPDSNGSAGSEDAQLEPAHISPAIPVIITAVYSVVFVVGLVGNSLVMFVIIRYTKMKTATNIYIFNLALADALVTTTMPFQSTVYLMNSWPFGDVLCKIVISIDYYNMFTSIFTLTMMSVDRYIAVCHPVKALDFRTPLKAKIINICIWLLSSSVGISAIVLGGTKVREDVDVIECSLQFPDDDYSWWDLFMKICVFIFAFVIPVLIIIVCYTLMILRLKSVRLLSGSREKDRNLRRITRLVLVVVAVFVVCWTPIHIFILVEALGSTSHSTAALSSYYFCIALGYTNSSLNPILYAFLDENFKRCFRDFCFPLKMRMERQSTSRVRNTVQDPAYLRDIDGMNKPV

SMILES | A4: inhibition of radioligand binding, human melanocortin (MC4) (Human Melanocortin (MC4)) | A6: inhibition of radioligand binding, human melanin-concentrating hormone (MCH1) [1] | A5: inhibition of radioligand binding, human melanocortin (MC5) (Human melanocortin (MC5)) | A10: inhibition of radioligand binding, human opioid (ORL1) (Human opioid (ORL1)) | A7: inhibition of radioligand binding, human μ-opioid (MOP) (Human μ-opioid (MOP)) | A3: inhibition of radioligand binding, human melanocortin (MC3) (Human Melanocortin (MC3)) | A8: inhibition of radioligand binding, human neurokinin (NK1) (Human neurokinin (NK1)) | A2: inhibition of radioligand binding, human κ-opioid (KOP) (Human κ-Opioid (KOP)) | A11: inhibition of radioligand binding, mouse urotensin (mUR2) (Mouse urotensin (mUR2)) | A1: inhibition of radioligand binding, human δ-opioid (DOP) (Human δ-opioid (DOP)) | A9: inhibition of radioligand binding, human neuropeptide Y (NPY-Y1) [2] | A5: inhibition of radioligand binding, human melanocortin (MC5) (Human melanocortin (MC5); 10 µM)
CSC1OC(COCc2cccc(N)c2)C(O)C(OCc2ccc(Cl)cc2)C1NC(=O)c1ccccc1 (stereo not shown) [compound 327] | − (“−” indicates less than 50% inhibition at 10 μM) | − (“−” indicates less than 50% inhibition at 10 μM) | − (“−” indicates less than 50% inhibition at 10 μM) | − (“−” indicates less than 50% inhibition at 10 μM) | − (“−” indicates less than 50% inhibition at 10 μM) | − (“−” indicates less than 50% inhibition at 10 μM) | + (“+” indicates greater than 50% inhibition at 10 μM) | − (“−” indicates less than 50% inhibition at 10 μM) | − (“−” indicates less than 50% inhibition at 10 μM) | − (“−” indicates less than 50% inhibition at 10 μM) | − (“−” indicates less than 50% inhibition at 10 μM) | –
CSC1OC(COCc2cccc(N)c2)C(O)C(OCc2ccc(Cl)cc2)C1NC(=O)Cc1ccccc1 (stereo not shown) [compound 328] | − (“−” indicates less than 50% inhibition at 10 μM) | − (“−” indicates less than 50% inhibition at 10 μM) | − (“−” indicates less than 50% inhibition at 10 μM) | − (“−” indicates less than 50% inhibition at 10 μM) | − (“−” indicates less than 50% inhibition at 10 μM) | − (“−” indicates less than 50% inhibition at 10 μM) | + (“+” indicates greater than 50% inhibition at 10 μM) | − (“−” indicates less than 50% inhibition at 10 μM) | − (“−” indicates less than 50% inhibition at 10 μM) | − (“−” indicates less than 50% inhibition at 10 μM) | − (“−” indicates less than 50% inhibition at 10 μM) | –
CSC1OC(COCc2cccc(N)c2)C(O)C(OCc2ccc(Cl)cc2)C1NC(=O)C=Cc1ccccc1 (stereo not shown) [compound 329] | − (“−” indicates less than 50% inhibition at 10 μM) | − (“−” indicates less than 50% inhibition at 10 μM) | − (“−” indicates less than 50% inhibition at 10 μM) | − (“−” indicates less than 50% inhibition at 10 μM) | − (“−” indicates less than 50% inhibition at 10 μM) | − (“−” indicates less than 50% inhibition at 10 μM) | + (“+” indicates greater than 50% inhibition at 10 μM) | − (“−” indicates less than 50% inhibition at 10 μM) | − (“−” indicates less than 50% inhibition at 10 μM) | − (“−” indicates less than 50% inhibition at 10 μM) | − (“−” indicates less than 50% inhibition at 10 μM) | –
CSC1OC(COCc2cccc(N)c2)C(O)C(OCc2ccccc2)C1NC(=O)Cc1ccccc1 (stereo not shown) [compound 330] | − (“−” indicates less than 50% inhibition at 10 μM) | − (“−” indicates less than 50% inhibition at 10 μM) | – | − (“−” indicates less than 50% inhibition at 10 μM) | − (“−” indicates less than 50% inhibition at 10 μM) | − (“−” indicates less than 50% inhibition at 10 μM) | + (“+” indicates greater than 50% inhibition at 10 μM) | − (“−” indicates less than 50% inhibition at 10 μM) | − (“−” indicates less than 50% inhibition at 10 μM) | − (“−” indicates less than 50% inhibition at 10 μM) | − (“−” indicates less than 50% inhibition at 10 μM) | − (“−” indicates less than 50% inhibition at 10 μM)
CSC1OC(COCc2cccc(N)c2)C(O)C(OCc2ccccc2)C1NC(=O)c1c[nH]c2ccccc12 (stereo not shown) [compound 331] | − (“−” indicates less than 50% inhibition at 10 μM) | − (“−” indicates less than 50% inhibition at 10 μM) | − (“−” indicates less than 50% inhibition at 10 μM) | − (“−” indicates less than 50% inhibition at 10 μM) | − (“−” indicates less than 50% inhibition at 10 μM) | − (“−” indicates less than 50% inhibition at 10 μM) | + (“+” indicates greater than 50% inhibition at 10 μM) | − (“−” indicates less than 50% inhibition at 10 μM) | − (“−” indicates less than 50% inhibition at 10 μM) | − (“−” indicates less than 50% inhibition at 10 μM) | − (“−” indicates less than 50% inhibition at 10 μM) | –
